Experimental data as given in paper PMC8226262, “Licarin-B Exhibits Activity Against the Toxoplasma gondii RH Strain by Damaging Mitochondria and Activating Autophagy” (Frontiers in Cell and Developmental Biology, 2021).
Like-named read-outs stand apart in the source and are kept apart here.

Legend:
[1] = system: T. gondii tachyzoites (strain RH) in HFFs; assay: In vitro screening of anti-T. gondii activity (Giemsa staining, qPCR); assay type: cell-based, Toxoplasma gondii; details: 24 h; for inhibition at 20 µg/mL: 20 μg/mL
Experimental: Human foreskin fibroblasts were seeded in 6-well plates and infected with 3 × 10^4 fresh T. gondii tachyzoites. After 8 h, the natural compounds in DMEM supplemented with 1% FBS were added. Sulfadiazine and pyrimethamine were included as positive drug controls. After incubation for 24 h, the cells were washed twice with PBS, stained with Giemsa, and observed by light microscopy. In addition, total DNA was isolated from the cells using DNAiso Reagent (Takara), and a 529-bp repeat element was amplified by quantitative polymerase chain reaction (qPCR) with the following primers: Tox-F (5′-AGGAGAGATATCAGGACTGTAG-3′), Tox-R (5′-GCGTCGTCTCGTCTAGATCG-3′), and the Taqman probe Tox-TP (6-Fam CCGGCTTGGCTGCTTTTCCT BHQ1), as described in a previous study ([Zhang J.L. et al., 2019]). The inhibition rates against T. gondii proliferation for the natural compounds at concentrations with no HFF toxicity were calculated, and the inhibition rate in each treatment group was presented as the % of the control group. The experiment was repeated three times.

HFF cells = assay: Cytotoxicity assay (CCK-8); assay type: cell-based, Human
Experimental: In brief, HFFs (1 × 10^4 cells/well) were seeded in 96-well plates in a monolayer and incubated with different concentrations of the compounds in DMEM with 1% FBS; DMEM without compound was used as a control. After 24 h, CCK-8 solution (Biomake, United States) was added, and absorbance was measured at 450 nm using a Multiskan GO instrument (Thermo Fisher Scientific, MA, United States). The cell viability values are expressed as percentages of the control value (considered as 100% survival). […] Triplicate independent experiments were performed.

[2] = system: T. gondii invasion of HFFs; assay: Anti-invasion assessment in vitro (qPCR); assay type: cell-based, Toxoplasma gondii; details: Toxoplasma gondii, 0.4 μg/mL, 2 h of infection, read-out: Anti-invasion inhibition rate
Experimental: Human foreskin fibroblasts were seeded in 6-well plates and incubated with different concentrations of licarin-B (4.5, 9, 13.5, 18, or 22.5 μg/mL), sulfadiazine (0.4 μg/mL, as a positive control) or without drugs in DMEM supplemented with 1% FBS and then infected with 3 × 10^6 fresh parasites per well. The anti-invasion capability of licarin-B was determined by qPCR after 2 h of infection, as described in a previous study ([Zhang J.L. et al., 2019]). Triplicate independent experiments were performed.

[3] = system: T. gondii tachyzoite intracellular proliferation in HFFs; assay: Anti-proliferation activity of licarin-B (qPCR); assay type: cell-based, Toxoplasma gondii; details: Toxoplasma gondii, 0.4 μg/mL, 24 h
Experimental: DMEM without drugs was used as a parasite control. […] After 24 h, the cells were washed twice with PBS, and total genomic DNA from the cells was obtained as described in a previous study ([Zhang J.L. et al., 2019]). […] The results represent the means ± standard deviations (SD) from at least three independent experiments. The EC50 of licarin-B for tachyzoite growth inhibition was plotted as a function of the compound concentration via non-linear curve analysis using SPSS 19.0 software (SPSS Inc., Chicago, IL, United States). The results of the anti-invasion and anti-proliferation tests, the in vivo assays of the survival rate and parasite burden and data comparisons between the parasite control and treatment groups were statistically analyzed by one-way analysis of variance (ANOVA) using SPSS software.

[4] = Toxoplasma gondii, read-out: Mean inhibition rate (% of control)
[5] = Toxoplasma gondii, T. gondii proliferation in HFFs, read-out: Mean inhibition rate (% of control)
[6] = 80 μg/mL, T. gondii proliferation in HFFs
[7] = Toxoplasma gondii, 4 μg/mL, T. gondii proliferation in HFFs, read-out: Mean inhibition rate (% of control)

C=CCc1cc(OC)c2c(c1)OCO2 [Myristicin, myristicin]
inhibition at 40 µg/mL [1, 4]: 22.3 ± 3.46%
Natural compound concentration range with no toxicity to HFF cells (HFF cells; CCK-8, 24 h, DMEM with 1% FBS): 0.01 to 40 µg/mL

CC1=CC(=O)C(C(C)C)CC1 (stereo not drawn) [Piperitone, piperitone]
inhibition at 20 µg/mL [1, 5]: 31.1 ± 1.97%
Natural compound concentration range with no toxicity to HFF cells (HFF cells; human, 24 h): 0.01 to 20 µg/mL

O=C(O)[C@@H](O)c1ccccc1 [L-mandelic acid]
Mean inhibition rate (% of control) [1, 6]: 11.87 ± 2.84%
Natural compound concentration range with no toxicity to HFF cells (HFF cells; CCK-8, 24 h, DMEM with 1% FBS): 0.01 to 80 µg/mL

CC1(C)CC[C@]2(C(=O)O)CC[C@]3(C)C(=CC[C@@H]4[C@@]5(C)C[C@@H](O)[C@H](O)C(C)(C)[C@@H]5CC[C@]43C)[C@@H]2C1 [Maslinic acid, maslinic acid]
inhibition at 4 µg/mL [1, 4]: 65.4 ± 4.53%
Natural compound concentration range with no toxicity to HFF cells (HFF cells; CCK-8, 24 h, DMEM with 1% FBS): 0.01 to 4 µg/mL

O=C(/C=C/c1ccc(O)c(O)c1)O[C@@H]1C[C@](O)(C(=O)O)C[C@@H](O)[C@H]1O [Chlorogenic acid, chlorogenic acid]
inhibition at 400 µg/mL ([1]; Toxoplasma gondii, 400 μg/mL, T. gondii proliferation in HFFs, read-out: Mean inhibition rate (% of control)): 34.6 ± 2.77%
Natural compound concentration range with no toxicity to HFF cells (HFF cells; human, 24 h): 0.01 to 400 µg/mL

COc1c(/C=C/C(=O)c2ccc(O)cc2)ccc(O)c1O [Licochalcone B]
Mean inhibition rate (% of control) ([1]; 16 μg/mL, T. gondii proliferation in HFFs): 51.67 ± 6.71%

COc1cc(O)ccc1/C=C/C(=O)c1ccc(O)cc1 [Echinatin, echinatin]
inhibition at 4 µg/mL [1, 7]: 63.1 ± 10.7%
Natural compound concentration range with no toxicity to HFF cells (HFF cells; CCK-8, 24 h, DMEM with 1% FBS): 0.01 to 4 µg/mL

O=C(/C=C/c1ccc(O)cc1)c1ccc(O)cc1O [Isoliquiritigenin, isoliquiritigenin]
inhibition at 4 µg/mL [1, 7]: 42.8 ± 7.92%
Natural compound concentration range with no toxicity to HFF cells (HFF cells; human, 24 h): 0.01 to 4 µg/mL

CC1(C)O[C@H]2CC(=O)OC[C@]23[C@H]2CC[C@@]4(C)[C@H](c5ccoc5)OC(=O)[C@H]5O[C@]54[C@]2(C)C(=O)C[C@@H]13 [Limonin, limonin]
inhibition at 80 µg/mL ([1]; Toxoplasma gondii, 80 μg/mL, T. gondii proliferation in HFFs, read-out: Mean inhibition rate (% of control)): 72.2 ± 9.78%
Natural compound concentration range with no toxicity to HFF cells (HFF cells; human, 24 h): 0.01 to 80 µg/mL

CCCCCCCCCCCCCC(=O)OC [Methyl myristate, methyl myristate]
inhibition at 160 µg/mL ([1]; Toxoplasma gondii, 160 μg/mL, T. gondii proliferation in HFFs, read-out: Mean inhibition rate (% of control)): 7.65 ± 2.64%
Natural compound concentration range with no toxicity to HFF cells (HFF cells; human, 24 h): 0.01 to 160 µg/mL

Nc1ccc(S(=O)(=O)Nc2ncccn2)cc1 [Sulfadiazine, reference compound]
inhibition at 0.4 µg/mL [2]: 56.5%
inhibition at 0.4 µg/mL [3]: 40.8%

COc1cc2c(=O)c(-c3ccc(O)cc3)coc2cc1O [Glycitein, glycitein]
inhibition at 40 µg/mL ([1]; Toxoplasma gondii, 40 μg/mL, T. gondii proliferation in HFFs, read-out: Mean inhibition rate (% of control)): 8.11 ± 2.19%
Natural compound concentration range with no toxicity to HFF cells (HFF cells; CCK-8, 24 h, DMEM with 1% FBS): 0.01 to 40 µg/mL

O=c1c(-c2ccc(O)cc2)coc2cc(O[C@@H]3O[C@H](CO)[C@@H](O)[C@H](O)[C@H]3O)cc(O)c12 [Genistin, genistin]
inhibition at 32 µg/mL ([1]; Toxoplasma gondii, 32 μg/mL, T. gondii proliferation in HFFs, read-out: Mean inhibition rate (% of control)): 26.3 ± 3.54%
Natural compound concentration range with no toxicity to HFF cells (HFF cells; CCK-8, 24 h, DMEM with 1% FBS): 0.01 to 32 µg/mL

CCCCCCCCCCCCCC(=O)O [Myristic acid, myristic acid]
inhibition at 20 µg/mL [1, 5]: 26.3 ± 1.32%
Natural compound concentration range with no toxicity to HFF cells (HFF cells; CCK-8, 24 h, DMEM with 1% FBS): 0.01 to 20 µg/mL

licorice glycosides
Mean inhibition rate (% of control) [1, 6]: 35.93 ± 4.78%

Cc1ccc(C(C)C)c(O)c1 [Thymol, thymol]
inhibition at 16 µg/mL ([1]; Toxoplasma gondii, 16 μg/mL, T. gondii proliferation in HFFs, read-out: Mean inhibition rate (% of control)): 25.7 ± 2.31%
Natural compound concentration range with no toxicity to HFF cells (HFF cells; human, 24 h): 0.01 to 16 µg/mL

O=C(O)[C@H](O)c1ccccc1 [D-mandelic acid]
Mean inhibition rate (% of control) [1, 6]: 9.30 ± 3.76%
Natural compound concentration range with no toxicity to HFF cells (HFF cells; CCK-8, 24 h, DMEM with 1% FBS): 0.01 to 80 µg/mL

C/C=C/c1cc(OC)c2c(c1)C(C)C(c1ccc(O)c(OC)c1)O2 (stereo not drawn) [Dehydrodiisoeugenol, dehydrodiisoeugenol]
Mean inhibition rate (% of control) [1, 6]: 8.14 ± 2.15%

O=c1c(-c2ccc(O)cc2)coc2cc(O)cc(O)c12 [Genistein, genistein]
inhibition at 40 µg/mL [1, 4]: 22.3 ± 5.91%
Natural compound concentration range with no toxicity to HFF cells (HFF cells; CCK-8, 24 h, DMEM with 1% FBS): 0.01 to 40 µg/mL

COc1c(/C=C/C(=O)c2ccc(O)cc2)ccc(O)c1CC=C(C)C [Licochalcone C, licochalcone C]
Mean inhibition rate (% of control) ([1]; 4 μg/mL, T. gondii proliferation in HFFs): 54.91 ± 4.85%
